Source: patent US11584714B2 (priority 2018, dated 2023)
Structures can show the parent of a compound that is named as a salt. Where two headings read alike, the source gives them in different places.

Legend:
Type in all cases: biochemical
MASP-2 = MASP-2 (Homo sapiens (Human), UniProt O00187); test: MASP-2 inhibition (Ki)
Thrombin = Thrombin (Homo sapiens (Human), UniProt P00734); test: Thrombin inhibition (Ki); details: for Ki: read-out: Thrombin Ki
MASP-2 (CCP1-CCP2-SP) = MASP-2 (CCP1-CCP2-SP) (Homo sapiens (Human), UniProt O00187); test: biochemical
human α-thrombin = human α-thrombin (Homo sapiens (Human), UniProt P00734); test: Enzymatic assay for thrombin (Boc-VPR-AMC substrate)
mMASP-2 = mMASP-2 (Mus musculus (Mouse), UniProt Q91WP0); test: Enzymatic inhibition of mMASP-2
Lectin Pathway = test: Lectin pathway activation assay in human serum (mannan-coated ELISA, C3c detection); details: 1% human serum
[1] = selectivity for MASP-2 inhibition versus thrombin

MASP-2, sequence (O00187 16-686): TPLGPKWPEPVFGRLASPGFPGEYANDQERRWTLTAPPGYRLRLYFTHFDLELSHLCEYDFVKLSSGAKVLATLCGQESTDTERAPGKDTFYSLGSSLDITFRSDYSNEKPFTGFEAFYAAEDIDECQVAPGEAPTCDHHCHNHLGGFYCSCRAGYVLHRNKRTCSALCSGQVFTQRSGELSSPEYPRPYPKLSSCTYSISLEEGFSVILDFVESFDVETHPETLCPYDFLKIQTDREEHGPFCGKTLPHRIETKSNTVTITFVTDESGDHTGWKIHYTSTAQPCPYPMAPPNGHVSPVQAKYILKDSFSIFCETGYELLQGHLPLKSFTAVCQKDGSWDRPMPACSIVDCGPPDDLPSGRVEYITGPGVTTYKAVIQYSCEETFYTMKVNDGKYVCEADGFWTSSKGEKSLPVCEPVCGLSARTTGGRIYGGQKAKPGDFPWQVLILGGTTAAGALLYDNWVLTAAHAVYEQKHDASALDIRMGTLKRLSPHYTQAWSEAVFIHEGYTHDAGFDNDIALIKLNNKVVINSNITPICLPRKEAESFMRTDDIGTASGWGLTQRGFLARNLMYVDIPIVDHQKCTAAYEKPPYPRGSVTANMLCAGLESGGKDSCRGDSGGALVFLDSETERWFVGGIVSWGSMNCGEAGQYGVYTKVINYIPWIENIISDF
MASP-2 (CCP1-CCP2-SP), sequence (O00187 445-686): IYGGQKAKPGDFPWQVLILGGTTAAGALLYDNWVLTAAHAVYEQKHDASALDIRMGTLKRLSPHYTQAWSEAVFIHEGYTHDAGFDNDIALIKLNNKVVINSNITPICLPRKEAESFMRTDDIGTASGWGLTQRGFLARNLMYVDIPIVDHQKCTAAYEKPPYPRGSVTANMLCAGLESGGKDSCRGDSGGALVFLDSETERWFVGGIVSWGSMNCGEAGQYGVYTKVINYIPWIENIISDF
mMASP-2, sequence (Q91WP0 20-685): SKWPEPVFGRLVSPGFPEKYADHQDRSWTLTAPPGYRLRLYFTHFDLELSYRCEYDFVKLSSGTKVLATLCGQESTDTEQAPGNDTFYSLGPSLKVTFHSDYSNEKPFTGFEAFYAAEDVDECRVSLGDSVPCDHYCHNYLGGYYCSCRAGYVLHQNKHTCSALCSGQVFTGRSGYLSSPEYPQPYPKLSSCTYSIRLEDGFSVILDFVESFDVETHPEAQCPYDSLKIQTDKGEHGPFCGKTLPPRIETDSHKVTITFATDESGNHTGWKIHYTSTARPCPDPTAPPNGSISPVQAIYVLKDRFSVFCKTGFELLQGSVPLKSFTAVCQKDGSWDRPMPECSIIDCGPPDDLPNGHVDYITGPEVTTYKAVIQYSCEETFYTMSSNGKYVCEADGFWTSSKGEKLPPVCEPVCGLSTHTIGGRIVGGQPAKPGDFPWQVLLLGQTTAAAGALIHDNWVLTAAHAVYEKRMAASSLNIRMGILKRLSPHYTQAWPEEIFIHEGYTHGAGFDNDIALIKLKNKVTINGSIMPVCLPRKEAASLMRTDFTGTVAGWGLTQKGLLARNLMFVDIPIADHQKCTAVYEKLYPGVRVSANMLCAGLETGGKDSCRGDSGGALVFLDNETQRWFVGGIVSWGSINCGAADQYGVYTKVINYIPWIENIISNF

Row | Structure (SMILES) | Ki (MASP-2) [nM] | Ki (MASP-2 (CCP1-CCP2-SP); read-out: MASP-2 Ki) [nM] | MASP-2 vs. thrombin selectivity (MASP-2 (CCP1-CCP2-SP); [1]) | Ki (mMASP-2; read-out: mMASP-2 Ki) [nM] | IC50 (Lectin Pathway) [nM] | other results
1 | CCCc1nnc(NC(CC)OC(=O)c2cc(C)nc3ccccc23)s1 (centres unmarked) [compound 23] | < 10000 |  |  |  |  | Thrombin Ki (μM) (Thrombin): No Activity
2 | O=C(O)/C=C/C=C/c1ccco1 [compound 38] | 10000 to 25000 |  |  |  |  | 
3 | N#Cc1ccc(OC(=O)c2ccc(Br)o2)cc1 [compound 45] | < 10000 |  |  |  |  | Ki (Thrombin): 25000 to 100000 nM
4 | O=c1oc(-c2ccco2)nc2cc(Cl)ccc12 [compound 11] | < 10000 |  |  |  |  | Thrombin Ki (μM) (Thrombin): No Activity
5 | CC(=O)c1ccc2c(c1)C1C=CCC1C(C(=O)O)N2 (centres unmarked) [compound 30] | 25000 to 100000 |  |  |  |  | Thrombin Ki (μM) (Thrombin): No activity
6 | O=c1oc(-c2ccco2)nc2scc(-c3cccs3)c12 [compound 19] | < 10000 |  |  |  |  | Ki (Thrombin): 25000 to 100000 nM
7 | Cc1cc(=O)oc2cc(OC(=O)c3ccco3)ccc12 [compound 12] | < 10000 |  |  |  |  | Ki (Thrombin): < 10000 nM
8 | Cc1cccc2c(=O)oc(-c3ccccc3Cl)nc12 [compound 18] | < 10000 |  |  |  |  | Ki (Thrombin): < 10000 nM
9 | C/C=C/C=C/C(=O)Nc1ccccc1C(=O)O [compound 37] | 25000 to 100000 |  |  |  |  | Thrombin Ki (μM) (Thrombin): No activity
10 | O=C(O)c1cc(N2N=C(C(F)(F)F)/C(=C\C=C\c3ccco3)C2=O)ccc1Cl [compound 16] | 25000 to 100000 |  |  |  |  | Thrombin Ki (μM) (Thrombin): No activity
11 | CC(=O)Nc1ccc(OC(=O)c2ccccc2NC(=O)c2ccccc2Br)cc1 [compound 33] | < 10000 |  |  |  |  | Ki (Thrombin): < 10000 nM
12 | O=C(Nc1nc[nH]n1)c1cccc(I)c1 [compound 36] | < 10000 |  |  |  |  | Ki (Thrombin): 25000 to 100000 nM
13 | Cc1c(/N=C/c2ccc(OC(=O)c3ccccn3)cc2)c(=O)n(-c2ccccc2)n1C [compound 17] | < 10000 |  |  |  |  | Ki (Thrombin): 25000 to 100000 nM
14 | CCOC(=O)c1ccc2c(c1)C1C=CCC1C(C(=O)O)N2 (centres unmarked) [compound 13] | 25000 to 100000 |  |  |  |  | Thrombin Ki (μM) (Thrombin): No activity
15 | COc1ccccc1C1=N/C(=C\c2cccs2)C(=O)O1 [compound 5] | 10000 to 25000 |  |  |  |  | 
16 | C[C@H](NC(=O)[C@H]1C[C@H](Cc2ccccc2)CN1)C(=O)NCc1cnc2[nH]cc(Cl)c2c1 [compound 1334, (2R,4S)-4-Benzyl-N-((S)-1-(((3-chloro-1H-pyrrolo[2,3-b]pyridin-5-yl)methyl)amino)-1-oxopropan-2-yl)pyrrolidine-2-carboxamide Di-hydrochloride] |  | < 500 | −− (<1.0-fold) | < 500 |  | Ki (human α-thrombin; read-out: Thrombin Ki): < 0.5 µM; selectivity for MASP-2 over thrombin (MASP-2; MASP-2 vs thrombin): MASP-2 selective

Row | Structure (SMILES) | Ki (MASP-2) [nM] | Ki (MASP-2 (CCP1-CCP2-SP); read-out: MASP-2 Ki) [nM] | MASP-2 vs. thrombin selectivity (MASP-2 (CCP1-CCP2-SP); [1]) | Ki (mMASP-2; read-out: mMASP-2 Ki) [nM] | IC50 (Lectin Pathway) [nM] | other results
17 | O=C1c2ccccc2C(=O)N1Oc1ccc(C(F)(F)F)cc1[N+](=O)[O-] [compound 35] | 25000 to 100000 |  |  |  |  | 
18 | Cc1nc(N)ccc1CNC(=O)[C@H](C)NC(=O)[C@H]1C[C@H](Cc2ccc(C#N)c3ccccc23)CN1 [compound 1431, (2R,4S)—N—((S)-1-(((6-Amino-2-methylpyridin-3-yl)methyl)amino)-1-oxopropan-2-yl)-4-((4-cyanonaphthalen-1-yl)methyl)pyrrolidine-2-carboxamide Dihydrochloride] |  | < 500 | **** (≥100-fold) | < 500 | 50 to 500 | Ki (human α-thrombin; Thrombin Ki (μM)): 10 to 25 µM
19 | Cc1nc(N)ccc1CNC(=O)[C@H](C)NC(=O)[C@H]1C[C@H](Cc2ccc(C#N)cc2)CN1 [compound 1428, (2R,4S)—N—((S)-1-(((6-Amino-2-methylpyridin-3-yl)methyl)amino)-1-oxopropan-2-yl)-4-(4-cyanobenzyl)pyrrolidine-2-carboxamide Di-trifluoroacetate salt] |  | < 500 | **** (≥100-fold) | 500 to 2500 | 500 to 5000 | Ki (human α-thrombin; Thrombin Ki (μM)): 10 to 25 µM
20 | Cc1nc(N)ccc1CNC(=O)[C@H](C)NC(=O)[C@H]1C[C@H](Cc2cccc(C#N)c2)CN1 [compound 1429, (2R,4S)—N—((S)-1-(((6-Amino-2-methylpyridin-3-yl)methyl)amino)-1-oxopropan-2-yl)-4-(3-cyanobenzyl)pyrrolidine-2-carboxamide Di-trifluoroacetate salt] |  | < 500 | **** (≥100-fold) | < 500 | 500 to 5000 | Ki (human α-thrombin; Thrombin Ki (μM)): 2.5 to 10 µM
21 | Cc1nc(N)ccc1CNC(=O)[C@H](C)NC(=O)[C@H]1C[C@H](Cc2ccc(-c3ccc(F)cc3C(N)=O)cc2)CN1 [compound 1397, (2R,4S)—N—((S)-1-(((6-amino-2-methylpyridin-3-yl)methyl)amino)-1-oxopropan-2-yl)-4-((2′-carbamoyl-4′-fluoro-[1,1′-biphenyl]-4-yl)methyl)pyrrolidine-2-carboxamide Di-trifluoroacetate salt] |  | < 500 | **** (≥100-fold) | < 500 | 50 to 500 | Ki (human α-thrombin; read-out: Thrombin Ki): > 25 µM
22 | Cc1nc(N)ccc1CNC(=O)[C@H](C)NC(=O)[C@H]1C[C@H](Cc2cccc(Br)c2)CN1 [compound 1452, (2R,4S)—N—((S)-1-(((6-Amino-2-methylpyridin-3-yl)methyl)amino)-1-oxopropan-2-yl)-4-(3-bromobenzyl)pyrrolidine-2-carboxamide Dihydrochloride] |  | < 500 | **** (≥100-fold) | < 500 | 500 to 5000 | Ki (human α-thrombin; Thrombin Ki (μM)): 0.5 to 2.5 µM
23 | C[C@H](NC(=O)[C@H]1C[C@H](Cc2cccc3ccccc23)CN1)C(=O)NCc1cnc2[nH]cc(Cl)c2c1 [compound 1415, (2R,4S)—N—((S)-1-(((3-Chloro-1H-pyrrolo[2,3-b]pyridin-5-yl)methyl)amino)-1-oxopropan-2-yl)-4-(naphthalen-1-ylmethyl)pyrrolidine-2-carboxamide Hydrochloride] |  | < 500 | * (≥1.0 to <5.0-fold) | < 500 | 50 to 500 | Ki (human α-thrombin; read-out: Thrombin Ki): < 0.5 µM
24 | Cc1cc(Cl)cc(CNC(=O)[C@H](C)NC(=O)[C@H]2C[C@H](Cc3ccc(Cl)s3)CN2)c1O [compound 1456, (2R,4R)—N—((S)-1-((5-Chloro-2-hydroxy-3-methylbenzyl)amino)-1-oxopropan-2-yl)-4-((5-chlorothiophen-2-yl)methyl)pyrrolidine-2-carboxamide Dihydrochloride] |  | < 500 |  | 500 to 2500 | 5000 to 50000 | Ki (human α-thrombin; read-out: Thrombin Ki): > 25 µM
25 | Cc1nc(N)ccc1CNC(=O)[C@H](C)NC(=O)[C@H]1C[C@H](Cc2cc(Cl)cc3ccccc23)CN1 [compound 1432, (2R,4S)—N—((S)-1-(((6-Amino-2-methylpyridin-3-yl)methyl)amino)-1-oxopropan-2-yl)-4-((3-chloronaphthalen-1-yl)methyl)pyrrolidine-2-carboxamide Dihydrochloride] |  | < 500 | **** (≥100-fold) | < 500 | 500 to 5000 | Ki (human α-thrombin; Thrombin Ki (μM)): 10 to 25 µM
26 | Cc1[nH]c(C(=O)N[C@@H](C)C(=O)NCc2ccc(C(=N)N)cc2)cc1-c1ccccc1 [compound 1239, (S)—N-(1-((4-Carbamimidoylbenzyl)amino)-1-oxopropan-2-yl)-5-methyl-4-phenyl-1H-pyrrole-2-carboxamide] |  | < 500 | ** (≥5.0 to <25-fold) | < 500 | 500 to 5000 | Ki (human α-thrombin; Thrombin Ki (μM)): 2.5 to 10 µM
27 | Cc1cc(Cl)cc(CNC(=O)[C@H](C)NC(=O)[C@H]2C[C@H](Cc3ccc4ccccc4c3)CN2)c1O [compound 1370, (2R,4S)—N—((S)-1-((5-Chloro-2-hydroxy-3-methylbenzyl)amino)-1-oxopropan-2-yl)-4-(naphthalen-2-ylmethyl)pyrrolidine-2-carboxamide] |  | < 500 |  |  | 50 to 500 | Ki (human α-thrombin; read-out: Thrombin Ki): > 25 µM; Ki (mMASP-2): 500 to 2500 nM
28 | Cc1cnc(NCCc2ccccc2)c(=O)n1CC(=O)NCc1ccc2c(N)nccc2c1 [compound 1491, N-((1-Aminoisoquinolin-6-yl)methyl)-2-(6-methyl-2-oxo-3-(phenethylamino)pyrazin-1(2H)-yl)acetamide Trifluoroacetamide salt] |  |  | −− (<1.0-fold) | < 500 | 5000 to 50000 | Ki (MASP-2 (CCP1-CCP2-SP)): 500 to 2500 nM; Ki (human α-thrombin; read-out: Thrombin Ki): < 0.5 µM
29 | Cc1nc(N)ccc1CNC(=O)[C@H](C)NC(=O)[C@@H](CCc1ccccc1)NCc1ccc(Cl)cc1 [compound 1375, (R)—N—((S)-1-(((6-Amino-2-methylpyridin-3-yl)methyl)amino)-1-oxopropan-2-yl)-2-((4-chlorobenzyl)amino)-4-phenylbutanamide] |  |  | ** (≥5.0 to <25-fold) | 10000 to 25000 | 500 to 5000 | Ki (MASP-2 (CCP1-CCP2-SP)): 500 to 2500 nM; Ki (human α-thrombin; Thrombin Ki (μM)): 10 to 25 µM
30 | C[C@H](NC(=O)[C@H](N)CCc1ccccc1)C(=O)NCc1ccc2nc(N)[nH]c2c1 (single isomer, unassigned) [compound 1040, Di-trifluoroacetate salt] |  | < 500 |  | < 500 | 500 to 5000 | MASP-2 vs. thrombin selectivity (MASP-2 (CCP1-CCP2-SP); MASP-2 inhibition versus thrombin): **** (>100-fold); Ki (human α-thrombin; read-out: Thrombin Ki): > 25 µM
31 | C[C@H](NC(=O)[C@H]1C[C@H](Cc2ccc(C3CCC3)cc2)CN1)C(=O)NCc1cnc2[nH]cc(Cl)c2c1 [compound 1378, (2R,4S)—N—((S)-1-(((3-Chloro-1H-pyrrolo[2,3-b]pyridin-5-yl)methyl)amino)-1-oxopropan-2-yl)-4-(4-cyclobutylbenzyl)pyrrolidine-2-carboxamide Di-trifluoroacetate salt] |  | < 500 | * (≥1.0 to <5.0-fold) | < 500 | 500 to 5000 | Ki (human α-thrombin; Thrombin Ki (μM)): 0.5 to 2.5 µM
32 | Cc1cnc(NCCc2ccccc2)c(=O)n1CC(=O)NCc1ccc2nc(N)[nH]c2c1 [compound 1492, N-((2-Amino-1H-benzo[d]imidazol-6-yl)methyl)-2-(6-methyl-2-oxo-3-(phenethylamino)pyrazin-1(2H)-yl)acetamide Trifluoroacetamide salt] |  | < 500 | ** (≥5.0 to <25-fold) | < 500 | 50 to 500 | Ki (human α-thrombin; read-out: Thrombin Ki): < 0.5 µM
